# Measurements reported in patent publication US20220298143A1, “Pyrazole Derivatives for FGFR Inhibitor and Preparation Method Thereof” (Etern Biopharma (Shanghai) Co., Ltd., priority 2019, published 2022).
# What was measured:
# FGFR1 = molecular target: T1, FGFR1 (Homo sapiens, UniProt P11362); test: Enzymatic activity test of FGFR inhibitor, Caliper model; assay type: biochemical; settings: Caliper, kinase pre-incubation 10 minutes; read-out: FGFR1
# T1 construct: purchased Cama (sic; Carna) 08-133
# Method: (§1) Enzymatic Activity Test of FGFR Inhibitor-Caliper Model
# (§2) The specific operation steps were as follows:
# (§3) The compound was first serially diluted in 5% DMSO solution, and 5 μL of the compound solution was added to a 384-well plate. The maximum final concentration of the compound is 1 μM, being diluted three times with 10 concentrations.
# (§4) 10 μL of kinase solution was added to the 384-well plate and incubated at room temperature for 10 minutes;
# (§5) 10 μL of P22 peptide and ATP solution were added to the 384-well plate, and 25 μL of reaction stop buffer was added after a specific time at 28° C.;
# (§6) The data was collected in Caliper read and the inhibition rate was calculated according to inhibition rate=(max−conversion)/(max−min)*100, where max is DMSO control, conversion is the reading of the compound treated group, and min is the maximum inhibition control. IC50 value of the compound was calculated with XLfit excel add-in version 5.4.0.8 software.
# FGFR2 = FGFR2 (Homo sapiens, UniProt P21802); test: as above; assay type: biochemical; settings: kinase pre-incubation 10 minutes
# FGFR3 = FGFR3 (Homo sapiens, UniProt P22607); test: as above; assay type: biochemical; settings: kinase pre-incubation 10 minutes
# FGFR4 = molecular target: T2, FGFR4 (Homo sapiens, UniProt P22455); test: as above; assay type: biochemical; settings: Caliper, kinase pre-incubation 10 minutes; read-out: FGFR4
# T2 construct: purchased Invitrogen PR4380A
# Method: as §1, §2, §3, §4, §5, §6
# Hep3B cells = test: Human liver cancer cell Hep3B survival test (CellTiter-Glo); assay type: cell-based; settings: 72 hours compound treatment
# Method: Human Liver Cancer Cell Hep3B Survival Test
# The human liver cancer Hep3B cell line was from ATCC. The cells were cultured in DMEM liquid medium, and fetal bovine serum (10% FBS) and penicillin-streptomycin (100,000 U/L) were added. The cells were kept at 37° C., 95% humidity and 5% carbon dioxide in the culture medium. During the experiment, Hep3B cells were seeded in a 96-well plate at a density of 3000 cells per well. The volume of the cell suspension was 100 μL per well, and the cells were cultured overnight to attach the cells. The next day, each compound was diluted with DMSO in a three-fold gradient, and 1 μL of the solution of the compound in DMSO was added to the cell culture medium. At the same time, 1 μL of DMSO was used as a control. Three parallel sub-wells were set for each concentration of each compound. Then the cells were placed in a 37° C. incubator. After 72 hours of continuous compound treatment, 50 μL CellTiter-Glo (Promega, Madison Wis.) was added to the cell culture medium. The relative luminescence unit (RLU) of each well was determined and the cell survival rate and compound activity (IC50) were calculated.
# [1] = Compound pharmacokinetic experiment, single intragastric administration; assay type: in vivo; settings: mouse, plasma, male mice, oral dosage 15 mg/Kg
# Method: Compound Pharmacokinetic Experiment
# The pharmacokinetics of the compounds of the present disclosure was determined. This application used the following methods to determine the pharmacokinetic parameters of the compounds.
# For the healthy male adult mice used in the study, each group of animals was given a single intragastric administration of 5-100 mg/Kg. Fasting was from 10 hours before administration to 4 hours after administration. Blood was collected at different time points after administration, and the plasma content of the compound was determined (LC-MS/MS). The plasma concentration-time relationship was analyzed with professional software (winnonlin) to calculate the pharmacokinetic parameters of the compound.
# [2] = tested on: Human liver cancer Hep3B cells; test: Hep3B transplanted tumor model; assay type: in vivo, Balb/c nude mice; settings: 21 days
# Method: Hep3B Transplanted Tumor Model
# Cell culture: Human liver cancer Hep3B cells were cultured in a monolayer in vitro. The culture conditions were 1640 medium with 10% fetal bovine serum, 100 U/mL penicillin and 100 μg/mL streptomycin, incubated at 37° C. in 5% CO2 incubator. Routine digestive passage was performed by pancreatin-EDTA twice a week. When the cell saturation was 80%-90% and the number reached the requirement, the cells were collected, counted, and inoculated.
# Animals: Balb/c nude mice, female, 6-8 weeks old, weighing 18-22 grams, provided by Shanghai Slack Laboratory Animal Co., Ltd. or other qualified suppliers.
# Tumor inoculation: 0.2 mL (10×106+Matrixgel) Hep3B cells were subcutaneously inoculated on the right back of each mouse, and group administration was started when the average tumor volume reached about 140-200 mm^3.
# Administration: compound prescription (0.5% MC+0.5% Tween 80) was made with administration dose of 0.3 mg/Kg, 1 mg/Kg, 2 mg/Kg, 3 mg/Kg, intragastric administration twice a day continuously for 21 days.
# Experimental indicators: to investigate whether tumor growth was inhibited, delayed or cured, the tumor diameter was measured with a vernier caliper three times a week. The calculation formula for tumor volume is: V=0.5a×b2, where a and b represent the long diameter and short diameter of the tumor, respectively. The anti-tumor efficacy of the compound was evaluated by TGI (%). TGI (%) reflected the tumor growth inhibition rate.
# [3] = molecular target: T3, FGFR1 (456-763) kinase domain protein (Homo sapiens, UniProt P11362); test: Confirmation of covalent bond formation between inhibitor and FGFR by mass spectrometry; assay type: binding
# T3 construct: The purified FGFR1 (456-763) kinase domain protein
# Method: Confirmation of the Formation of Covalent Bonds Between FGFR Irreversible Inhibitors and FGFR by Mass Spectrometry
# For example, compound 1 was incubated with FGFR1, the molecular weight of the protein-compound complex was detected by mass spectrometry.
# Operation steps: The purified FGFR1 (456-763) kinase domain protein was diluted with a protein buffer (20 mM Tris-HCL pH8.0, 150 mM Nacl) to a final concentration of about 20 μM (800 ng/μl). A 100 ul incubation system was used, wherein compound 1 with a final concentration of 100 μM was added to the experimental group with a molar ratio of the protein to compound of 1:5 and DMSO was added to the control group. The amount of DMSO was controlled in the two groups to be 1% by volume of the system. The experimental group and the control group were incubated on ice at the same time for 2 hours, and then diluted with 4 times volume of acetone at −20 overnight. After centrifugation at 16000×g for 10 minutes, the deposit was resuspended in 0.1% formic acid and loaded for mass spectrometry data collection.
# [4] = 100 μM compound, about 20 μM protein, 2 hours on ice
# T3 sequence (P11362 456-763): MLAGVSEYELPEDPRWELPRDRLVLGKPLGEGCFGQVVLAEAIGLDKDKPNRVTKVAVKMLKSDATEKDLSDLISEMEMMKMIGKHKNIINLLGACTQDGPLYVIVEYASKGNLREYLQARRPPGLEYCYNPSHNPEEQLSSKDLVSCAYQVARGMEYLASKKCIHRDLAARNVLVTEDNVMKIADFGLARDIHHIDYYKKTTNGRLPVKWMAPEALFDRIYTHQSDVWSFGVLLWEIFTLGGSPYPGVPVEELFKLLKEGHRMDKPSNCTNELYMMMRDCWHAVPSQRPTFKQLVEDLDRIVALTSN
# T1 sequence (P11362 22-822): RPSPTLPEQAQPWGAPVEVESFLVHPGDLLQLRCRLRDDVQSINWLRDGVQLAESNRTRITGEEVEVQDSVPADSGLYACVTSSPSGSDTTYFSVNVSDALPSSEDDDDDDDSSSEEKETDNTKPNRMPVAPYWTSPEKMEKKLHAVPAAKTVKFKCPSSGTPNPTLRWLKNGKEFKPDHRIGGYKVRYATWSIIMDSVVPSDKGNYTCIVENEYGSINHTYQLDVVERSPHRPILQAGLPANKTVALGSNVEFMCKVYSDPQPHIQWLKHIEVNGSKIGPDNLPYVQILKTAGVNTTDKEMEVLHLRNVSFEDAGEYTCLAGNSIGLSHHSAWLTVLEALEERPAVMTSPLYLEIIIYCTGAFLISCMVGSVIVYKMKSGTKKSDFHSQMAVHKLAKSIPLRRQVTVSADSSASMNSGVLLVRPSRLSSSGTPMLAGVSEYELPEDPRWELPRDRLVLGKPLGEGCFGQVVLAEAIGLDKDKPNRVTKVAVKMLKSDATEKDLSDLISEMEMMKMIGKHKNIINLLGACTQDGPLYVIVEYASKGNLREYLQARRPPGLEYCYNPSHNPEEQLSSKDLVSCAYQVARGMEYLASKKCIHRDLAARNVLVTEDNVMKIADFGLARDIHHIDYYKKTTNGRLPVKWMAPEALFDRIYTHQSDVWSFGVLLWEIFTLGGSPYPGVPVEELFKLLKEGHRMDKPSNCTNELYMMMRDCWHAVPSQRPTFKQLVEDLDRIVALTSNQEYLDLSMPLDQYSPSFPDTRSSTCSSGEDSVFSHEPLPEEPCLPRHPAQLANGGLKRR
# Chain of FGFR3 (P22607 23-806): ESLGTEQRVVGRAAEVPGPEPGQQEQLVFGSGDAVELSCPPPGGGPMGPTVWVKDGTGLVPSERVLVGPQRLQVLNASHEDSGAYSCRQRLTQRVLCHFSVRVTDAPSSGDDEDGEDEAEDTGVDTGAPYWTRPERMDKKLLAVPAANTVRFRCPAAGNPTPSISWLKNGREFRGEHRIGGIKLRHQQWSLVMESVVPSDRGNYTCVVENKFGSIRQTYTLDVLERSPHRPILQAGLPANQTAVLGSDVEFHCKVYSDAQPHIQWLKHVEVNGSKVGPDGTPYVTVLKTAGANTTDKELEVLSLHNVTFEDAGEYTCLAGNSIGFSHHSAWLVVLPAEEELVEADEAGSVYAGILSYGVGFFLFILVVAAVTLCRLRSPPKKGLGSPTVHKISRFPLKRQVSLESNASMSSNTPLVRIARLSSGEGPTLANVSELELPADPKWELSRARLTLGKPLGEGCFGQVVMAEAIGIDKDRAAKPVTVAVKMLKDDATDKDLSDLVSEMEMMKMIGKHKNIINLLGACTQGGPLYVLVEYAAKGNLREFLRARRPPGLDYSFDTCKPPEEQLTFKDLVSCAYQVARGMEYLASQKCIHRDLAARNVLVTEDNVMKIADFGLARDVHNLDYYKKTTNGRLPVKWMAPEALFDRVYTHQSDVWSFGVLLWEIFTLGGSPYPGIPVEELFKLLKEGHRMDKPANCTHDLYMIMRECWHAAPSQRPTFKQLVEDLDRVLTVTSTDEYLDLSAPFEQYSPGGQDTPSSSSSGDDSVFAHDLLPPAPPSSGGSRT
# T2 sequence (P22455 22-802): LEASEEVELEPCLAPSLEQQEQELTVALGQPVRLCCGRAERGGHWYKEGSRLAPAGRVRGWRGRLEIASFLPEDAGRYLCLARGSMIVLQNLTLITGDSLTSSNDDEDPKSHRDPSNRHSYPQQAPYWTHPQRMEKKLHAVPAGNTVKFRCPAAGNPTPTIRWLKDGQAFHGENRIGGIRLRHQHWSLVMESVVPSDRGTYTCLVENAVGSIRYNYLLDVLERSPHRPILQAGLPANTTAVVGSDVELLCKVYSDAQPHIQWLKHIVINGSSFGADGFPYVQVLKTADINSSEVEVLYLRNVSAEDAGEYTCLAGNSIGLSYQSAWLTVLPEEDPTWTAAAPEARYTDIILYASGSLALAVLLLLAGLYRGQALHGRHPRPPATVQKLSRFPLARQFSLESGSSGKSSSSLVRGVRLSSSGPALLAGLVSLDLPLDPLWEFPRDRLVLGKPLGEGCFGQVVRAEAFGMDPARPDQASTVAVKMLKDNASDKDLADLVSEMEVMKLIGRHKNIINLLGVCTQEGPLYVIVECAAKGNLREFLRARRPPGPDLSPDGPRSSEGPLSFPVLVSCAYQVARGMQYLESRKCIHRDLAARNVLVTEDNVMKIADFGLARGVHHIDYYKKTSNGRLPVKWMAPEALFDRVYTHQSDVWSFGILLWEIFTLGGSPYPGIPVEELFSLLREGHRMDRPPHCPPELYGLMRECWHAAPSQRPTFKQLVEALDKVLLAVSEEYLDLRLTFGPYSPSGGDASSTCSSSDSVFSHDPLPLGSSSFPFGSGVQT
# Chain of FGFR2 (P21802 22-821): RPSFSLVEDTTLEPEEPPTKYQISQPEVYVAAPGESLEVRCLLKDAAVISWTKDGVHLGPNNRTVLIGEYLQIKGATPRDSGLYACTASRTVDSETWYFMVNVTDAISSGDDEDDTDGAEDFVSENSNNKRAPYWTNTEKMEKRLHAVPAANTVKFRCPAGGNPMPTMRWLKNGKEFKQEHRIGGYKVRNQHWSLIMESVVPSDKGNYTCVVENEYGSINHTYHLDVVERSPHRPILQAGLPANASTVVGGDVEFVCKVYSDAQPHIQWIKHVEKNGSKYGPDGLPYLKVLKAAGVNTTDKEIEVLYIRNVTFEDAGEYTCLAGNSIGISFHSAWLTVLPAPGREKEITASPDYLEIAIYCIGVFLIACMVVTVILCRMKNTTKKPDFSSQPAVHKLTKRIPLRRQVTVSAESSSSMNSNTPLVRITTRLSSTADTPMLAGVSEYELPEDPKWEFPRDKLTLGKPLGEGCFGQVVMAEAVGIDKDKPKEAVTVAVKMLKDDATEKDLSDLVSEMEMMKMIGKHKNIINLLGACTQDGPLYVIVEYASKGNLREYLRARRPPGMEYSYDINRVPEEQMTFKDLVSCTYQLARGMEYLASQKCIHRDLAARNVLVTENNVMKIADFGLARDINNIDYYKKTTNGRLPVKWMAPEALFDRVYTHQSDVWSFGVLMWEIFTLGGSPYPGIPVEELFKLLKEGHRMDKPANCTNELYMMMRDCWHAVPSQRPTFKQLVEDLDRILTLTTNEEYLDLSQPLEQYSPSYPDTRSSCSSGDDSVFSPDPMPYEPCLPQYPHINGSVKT
structure (smiles),measurement,setting,value
"C=CC(=O)Nc1cc(N2CCN(CCC(F)(F)F)CC2)ccc1C(=O)Nc1cc(CCc2cc(OC)cc(OC)c2)n[nH]1 [Compound 1, 2-acrylamide-N-(3-(3,5-dimethoxyphenethyl)-1H-pyrazol-5-yl)-4-(4-(3,3,3-trifluoropropyl)piperazin-1-yl) benzamide]",IC50,FGFR1,1.9 nM
same,IC50,FGFR2,1.8 nM
same,IC50,FGFR3,3.3 nM
same,IC50,FGFR4,1.2 nM
same,IC50,Hep3B cells,1.4 nM
same,Cmax,[1]; read-out: Peak plasma concentration Cmax,1220 nM
same,AUC,[1]; read-out: Plasma exposure AUC,2.27 µM·h
same,TGI %,[2]; 0.3 mpk oral twice a day,17%
same,TGI %,[2]; 1 mpk oral twice a day,50%
same,TGI %,[2]; 2 mpk oral twice a day,100%
same,TGI %,[2]; 3 mpk oral twice a day,108%
same,average molecular weight of protein-compound complex,[3]; [4],36345.5 Da
same,Δmolecular weight (complex versus DMSO + FGFR1),[3]; [4],598
same,formation of covalent bond with FGFR1 protein,[3]; mass spectrometry,formed an irreversible covalent bond
